Measured values taken from ChEMBL document CHEMBL3046665, “In vitro cytotoxicity, antimicrobial, and metal-chelating activity of triterpene saponins from tea seed grown in Kangra valley, India” (Med Chem Res, 2013).
Where a name gives a salt, the structure may show the parent alone.

Experiments:
Type in all cases: functional
[1] = system: PC-3; assay: Cytotoxicity against Homo sapiens (human) PC3 cells assessed as growth inhibition at 1 uM after 48 hr by SRB assay; details: PC-3, 48 h, read-out: GI
[2] = system: COLO 205; assay: Cytotoxicity against Homo sapiens (human) COLO205 cells assessed as growth inhibition at 1uM after 48 hr by SRB assay; details: COLO 205, 48 h, read-out: GI
[3] = system: MCF7; assay: Cytotoxicity against Homo sapiens (human) MCF7 cells assessed as growth inhibition at 1 uM after 48 hr by SRB assay; details: MCF7, 48 h, read-out: GI
[4] = system: OVCAR-5; assay: Cytotoxicity against Homo sapiens (human) OVCAR5 cells assessed as growth inhibition at 1 uM after 48 hr by SRB assay; details: OVCAR-5, 48 h, read-out: GI

SMILES	inhibition of growth at 1 µM [1] [%]	inhibition of growth at 1 µM [2] [%]	inhibition of growth at 1 µM [3] [%]	inhibition of growth at 1 µM [4] [%]
CC(=O)O[C@H]1C(=O)[C@@]2(C)[C@H]([C@H](OC(=O)c3ccccc3)[C@]3(O)C[C@H](OC(=O)[C@H](O)[C@@H](NC(=O)c4ccccc4)c4ccccc4)C(C)=C1C3(C)C)[C@]1(OC(C)=O)CO[C@@H]1C[C@@H]2O [PACLITAXEL]	71	57	80	73
COc1cccc2c1C(=O)c1c(O)c3c(c(O)c1C2=O)C[C@@](O)(C(=O)CO)C[C@@H]3O[C@H]1C[C@H](N)[C@H](O)[C@H](C)O1 [DOXORUBICIN HYDROCHLORIDE]	66	69	72	60
